Experimental data taken from patent US20150342954A1, “2-BENZYL, 3-(PYRIMIDIN-2-YL) SUBSTITUTED PYRAZOLES USEFUL AS SGC STIMULATORS” (IRONWOOD PHARMACEUTICALS, INC., priority 2011, published 2015).
Where two headings read alike, the source gives them in different places.

What was measured:
[1] = target: T1, soluble guanylate cyclase (sGC) (Homo sapiens, UniProt Q02108+Q02153); assay: sGC-HEK-cGMP assay (run with SNP incubation); assay type: cell-based; details: for Emax: 10 μM SNP, 100% = 30 μM BAY 41-2272 with 10 μM SNP, read-out: HEK assay Emax-unconstrained (Percent); for HEK MEC-10: concentration that would elicit 10% of the Emax in the presence of 10 μM SNP; for EC50: in the presence of 10 μM SNP
T1 construct: endogenously expressing soluble guanylate cyclase (sGC); endogenous in cells; host or cells: HEK293
T1 sequence (Q02153 1-619): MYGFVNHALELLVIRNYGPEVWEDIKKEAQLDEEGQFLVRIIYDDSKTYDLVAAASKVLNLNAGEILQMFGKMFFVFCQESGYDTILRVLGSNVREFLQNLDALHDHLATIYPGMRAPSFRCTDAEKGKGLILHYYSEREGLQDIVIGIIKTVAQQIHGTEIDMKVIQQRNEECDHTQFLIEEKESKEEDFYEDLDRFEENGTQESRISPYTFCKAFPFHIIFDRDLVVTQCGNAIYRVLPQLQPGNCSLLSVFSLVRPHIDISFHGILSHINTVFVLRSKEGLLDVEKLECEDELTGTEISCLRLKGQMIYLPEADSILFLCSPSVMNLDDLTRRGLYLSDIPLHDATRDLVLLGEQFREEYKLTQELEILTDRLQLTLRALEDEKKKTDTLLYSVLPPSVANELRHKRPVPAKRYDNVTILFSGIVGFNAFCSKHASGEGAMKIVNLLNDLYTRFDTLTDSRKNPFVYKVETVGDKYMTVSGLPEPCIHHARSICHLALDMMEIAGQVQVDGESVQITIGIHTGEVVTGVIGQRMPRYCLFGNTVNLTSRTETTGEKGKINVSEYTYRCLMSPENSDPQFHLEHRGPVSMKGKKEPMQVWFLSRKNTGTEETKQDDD
T1 sequence (Q02108 1-690): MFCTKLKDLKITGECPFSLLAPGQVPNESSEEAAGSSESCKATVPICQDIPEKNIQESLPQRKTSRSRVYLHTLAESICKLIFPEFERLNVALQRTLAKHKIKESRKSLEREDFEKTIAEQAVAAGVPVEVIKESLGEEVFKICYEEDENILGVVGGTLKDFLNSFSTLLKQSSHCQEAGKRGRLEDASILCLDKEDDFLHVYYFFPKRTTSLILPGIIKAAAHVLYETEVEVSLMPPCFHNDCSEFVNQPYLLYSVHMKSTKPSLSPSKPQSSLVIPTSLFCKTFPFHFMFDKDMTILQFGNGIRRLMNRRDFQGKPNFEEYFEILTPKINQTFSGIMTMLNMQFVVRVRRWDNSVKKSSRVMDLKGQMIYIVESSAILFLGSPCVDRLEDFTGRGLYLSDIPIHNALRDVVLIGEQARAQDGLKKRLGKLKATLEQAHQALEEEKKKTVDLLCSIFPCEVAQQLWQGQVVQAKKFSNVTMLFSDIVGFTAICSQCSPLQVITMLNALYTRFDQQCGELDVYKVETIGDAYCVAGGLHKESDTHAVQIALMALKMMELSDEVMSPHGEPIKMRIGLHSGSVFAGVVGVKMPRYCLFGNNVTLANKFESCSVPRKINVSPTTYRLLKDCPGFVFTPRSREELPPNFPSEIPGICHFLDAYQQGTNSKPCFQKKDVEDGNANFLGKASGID
Protocol: Biological Activity Measurement by the sGC-HEK-cGMP Assay
(Assay Run with SNP Incubation)
Human embryonic kidney cells (HEK293), endogenously expressing soluble guanylate cyclase (sGC), were used to evaluate the activity of test compounds. Compounds stimulating the sGC receptor should cause an increase in the intracellular concentration of cGMP. HEK 293 cells were seeded in Dulbecco's Modification of Eagle's Medium supplemented with fetal bovine serum (10% final) and L-glutamine (2 mM final) in a 2004 volume at a density of 1×10^5 cells/well in a poly-D-lysine coated 96 well flat bottom plate and grown overnight at 37° C. Medium was aspirated and cells were washed with 1× Hank's Buffered Saline Salt Solution (2004). Cells were then incubated for 15 minutes at 37° C. with 0.5 mM 3-isobutyl-1-methylxanthine (2004). Test article and sodium nitroprusside were then added to the assay mixture (24 each) and incubated at 37° C. for 10 minutes. After the 10 minute incubation, the assay mixture was aspirated and 0.1M HCl (2004) was added to the cells. The plate was incubated at 4° C. for 30 minutes in the 0.1M HCl to stop the reaction and lysed the cells. The plates were then centrifuged at 1,200 g for 5 minutes at room temperature. Supernatants were collected and transferred to a new flat bottom 96 well plate for analysis. Vehicle controls were carried out using DMSO (1%). A known sGC stimulator, BAY 41-2272, was used as the positive control. Samples were diluted with an equal volume of 1 M Ammonium Acetate (pH 7) to neutralize samples for better chromatography. A 2×cGMP standard curve was prepared in 0.1 M HCl and then diluted with an equal volume of 1 M Ammonium Acetate, with the following final concentrations in nM: 1024, 512, 256, 128, 64, 32, 16, 8, 4, 2, 1.cGMP concentrations were determined from each sample using the LC/MS conditions (Table 2 below) and calculated standard curve. EC50 values were calculated from concentration-response curves generated with GraphPad Prism Software.

[2] = target: T2, Human soluble guanylate cyclase enzyme (hsGC) (Homo sapiens, UniProt Q02108+Q02153); assay: Purified human sGC enzyme activity assay (without SNP); assay type: biochemical; details: compound at 30 μM, absence of SNP, fold over DMSO control
T2 construct: purchased Enzo Inc. ALX-201-177
T2 sequence (Q02153 1-619): T1 sequence (Q02153 1-619)
T2 sequence (Q02108 1-690): T1 sequence (Q02108 1-690)
Protocol: Biological Activity Measurements by the Purified Human sGC Enzyme Activity Assay
(§1) Human soluble guanylate cyclase enzyme (hsGC) obtained from Enzo Inc. (P/N: ALX-201-177) was used to evaluate the activity of test compounds. The assay reactions contained 0.1 M Tris (pH 8.0), 0.5 mg/mL BSA (pH 8.0), 2 mM DTT, 2 mM MgCl2, 300 μM GTP, 1 mM 3-isobutyl-1-methylxanthine (IBMX) and 5 ng human soluble guanylate cyclase enzyme. Test compounds in DMSO were then added (2 μL, 10 or 30 μM final concentration) and incubated (200 μL, 96-well plate format) at 37° C. for 30 minutes. The controls were carried out using 2 μL DMSO. After the 30 minute incubation, the reaction was stopped with the addition of 200 μl of cold methanol. The plate was then centrifuged at 3,200 rpm for 10 minutes at room temperature. Supernatants (200 μL) were collected and transferred to a new 96 well plate for analysis.
(§2) An 8 point cGMP (Sigma-Aldrich P/N: G6129) standard curve was prepared in assay buffer ranging from 0.156-20 μM. Samples for the cGMP standard curve were then diluted with an equal volume of methanol resulting in final cGMP concentrations of 0.078-10 μM.
(§3) The cGMP standard curve was generated using GraphPad Prism Software.
(§4) Calculations: Specific Activity was determined by the amount of cGMP formed (nmoles) per mg of sGC per min. Enzyme “fold-change” was calculated by dividing Specific Activity for test compounds by Specific Activity of DMSO controls.

[3] = target: T2, Human soluble guanylate cyclase enzyme (hsGC); assay: Purified human sGC enzyme synergy assay in the presence of 1 μM sodium nitroprusside (SNP); assay type: biochemical; details: compound at 30 μM, presence of 1 μM SNP
Protocol: as §1, §2, §3, §4
Biological Measurement by the Purified Human sGC Enzyme Synergy Performed in the Presence of Sodium Nitroprusside (SNP), a Nitric Oxide Donor
Enzyme assays were performed as described above, but was done in the absence or presence of 1 μM sodium nitroprusside (SNP).

[4] = Table 3C, top of concentration-response curve not fitted to 100%
[5] = Table 3F, read-out: HEK assay EC50
[6] = top of concentration-response curve not fitted to 100%, Table 3F, read-out: HEK assay EC50-unconstrained
[7] = Table 3A, top of concentration-response curve not fitted to 100%
[8] = Table 3D, read-out: HEK assay EC50
[9] = top of concentration-response curve not fitted to 100%, Table 3D, read-out: HEK assay EC50-unconstrained
[10] = Table 3B, top of concentration-response curve not fitted to 100%
[11] = Table 3E, read-out: HEK assay EC50
[12] = top of concentration-response curve not fitted to 100%, Table 3E, read-out: HEK assay EC50-unconstrained

NC1=NNC2NC(c3cc(-c4ccon4)n(Cc4ccccc4F)n3)=NC=C12 (centres unmarked) [Compound 118]
Emax [1, 4]: 80 to 100% | HEK MEC-10 ([1]; Table 3F): B (0.01 to <0.1 μM) | EC50 [1, 5]: < 20 µM | EC50 [1, 6]: 0.5 to 1 µM | Enzyme Activity (increase at 30 μM without SNP) ([2]; Table 5C): C (5 to <10 fold increase) | Enzyme Activity (increase at 30 μM with SNP) ([3]; Table 5C): E (20 to 30 fold increase)

O=c1[nH]c(-c2cc(-c3ccon3)n(Cc3ccccc3F)n2)nc(Cl)c1Cl [Compound 54]
Emax [1, 7]: 40 to 60% | HEK MEC-10 ([1]; Table 3D): D (1 to <10 μM) | EC50 [1, 8]: 40 to 60 µM | EC50 [1, 9]: 5 to 10 µM | Enzyme Activity (increase at 30 μM without SNP) ([2]; Table 5A): A (no increase to <2 fold increase) | Enzyme Activity (increase at 30 μM with SNP) ([3]; Table 5A): C (5 to <10 fold increase)

Nc1nc(-c2cc(-c3ccon3)n(Cc3ccccc3F)n2)ncc1NC(=O)C1(N)CC1 [Compound 69]
Emax [1, 10]: 80 to 100% | HEK MEC-10 ([1]; Table 3E): A (0.001 to <0.01 μM) | EC50 [1, 11]: 60 to 100 µM | EC50 [1, 12]: 0.5 to 1 µM | Enzyme Activity (increase at 30 μM without SNP) ([2]; Table 5B): B (2 to <5 fold increase) | Enzyme Activity (increase at 30 μM with SNP) ([3]; Table 5B): D (10 or <20 fold increase)

Nc1ccnc(-c2cc(-c3ccon3)n(Cc3cccc(Cl)c3F)n2)n1 [Compound 78]
Emax [1, 10]: 80 to 100% | HEK MEC-10 ([1]; Table 3E): B (0.01 to <0.1 μM) | EC50 [1, 11]: 60 to 100 µM | EC50 [1, 12]: 0.5 to 1 µM | Enzyme Activity (increase at 30 μM without SNP) ([2]; Table 5B): C (5 to <10 fold increase) | Enzyme Activity (increase at 30 μM with SNP) ([3]; Table 5B): E (20 to 30 fold increase)

Fc1cccnc1Cn1nc(-c2ncccn2)cc1-c1ccon1 [Compound 57]
Enzyme Activity (increase at 30 μM without SNP) ([2]; Table 5A): A (no increase to <2 fold increase) | Enzyme Activity (increase at 30 μM with SNP) ([3]; Table 5A): A (no increase to <2 fold increase)

O=c1[nH]c(-c2cc(-c3ccon3)n(Cc3ccncc3F)n2)ncc1F [Compound 26]
Enzyme Activity (increase at 30 μM without SNP) ([2]; Table 5A): A (no increase to <2 fold increase) | Enzyme Activity (increase at 30 μM with SNP) ([3]; Table 5A): A (no increase to <2 fold increase)

Nc1nc(-c2cc(-c3ccon3)n(Cc3cccc(F)c3F)n2)ncc1NC(=O)C12CC3CC(CC(O)(C3)C1)C2 [Compound 107]
Emax [1, 4]: 40 to 60% | HEK MEC-10 ([1]; Table 3F): C (0.1 to <1 μM) | EC50 [1, 5]: < 20 µM | EC50 [1, 6]: 1 to 5 µM

Fc1cnccc1Cn1nc(-c2ncccn2)cc1-c1ccon1 [Compound 23]
HEK MEC-10 ([1]; Table 3D): E (10 to 50 μM)

Fc1ncccc1Cn1nc(-c2ncccn2)cc1-c1ccon1 [Compound 66]
Enzyme Activity (increase at 30 μM without SNP) ([2]; Table 5A): A (no increase to <2 fold increase) | Enzyme Activity (increase at 30 μM with SNP) ([3]; Table 5A): A (no increase to <2 fold increase)

Oc1nc(-c2cc(-c3ccon3)n(Cc3ccccc3F)n2)ncc1Sc1ccc(Cl)cc1 [Compound 6, 5-(4-chlorophenylthio)-2-(1-(2-fluorobenzyl)-5-(isoxazol-3-yl)-1H-pyrazol-3-yl)pyrimidin-4-ol]
Emax [1, 7]: 60 to 80% | HEK MEC-10 ([1]; Table 3D): C (0.1 to <1 μM) | EC50 [1, 8]: < 20 µM | EC50 [1, 9]: 1 to 5 µM

Nc1nc(-c2cc(-c3ccon3)n(Cc3ccccc3F)n2)ncc1NC(=O)C1(c2ccccc2F)CC1 [Compound 9]
Emax [1, 7]: 60 to 80% | HEK MEC-10 ([1]; Table 3D): B (0.01 to <0.1 μM) | EC50 [1, 8]: < 20 µM | EC50 [1, 9]: 0.01 to 0.5 µM

CN(C)Cc1cccc(C(=O)Nc2cnc(-c3cc(-c4ccon4)n(Cc4cccc(F)c4F)n3)nc2N)c1 [Compound 104]
Emax [1, 4]: 40 to 60% | HEK MEC-10 ([1]; Table 3F): C (0.1 to <1 μM) | EC50 [1, 5]: < 20 µM | EC50 [1, 6]: 1 to 5 µM
